Test results published in PMC12527934 (Nature, 2025).
*1 amine or outer side, *2 acyl side, *3 side chain or, on linkers, in order; H or OH if unused. Where a SMILES comes first, the peptide text is derived from it. Bridges are numbered along the chain shown (N, C = ends). [ ]: non-standard residue; d: D form. The star is where a group is joined. X4 = CN([C@@H](Cc1cc(Cl)ccc1-c1cnn(C)c1)C(=O)[*:2])[*:1]; X5 = CN([C@@H](Cc1cc(Cl)nn1-c1ccccc1)C(=O)[*:2])[*:1]; cBuCO(3,3-F2-1-CF3) = O=C(C1(C(F)(F)F)CC(F)(F)C1)*; NMePhe(2,5-Cl2) = CN[C@@H](Cc1cc(Cl)ccc1Cl)C(=O)O; X2 = CCCN([C@@H](Cc1cc(Cl)ccc1Cl)C(=O)[*:2])[*:1]; Nle(6-morpholino) = N[C@@H](CCCCN1CCOCC1)C(=O)O; X6 = CN([C@H](Cc1cc(Cl)ccc1Cl)C(=O)[*:2])[*:1]; Pro(trans-4-F) = O=C(O)[C@@H]1C[C@@H](F)CN1; dPro(trans-4-F) = O=C(O)[C@H]1C[C@H](F)CN1; X3 = O=C([C@@H](c1cccnc1)C1CCCCC1)*; Gly(cPr) = N[C@H](C(=O)O)C1CC1; X1 = C[C@@](O)(C(=O)*)C(F)(F)F; Cba = N[C@@H](CC1CCC1)C(=O)O; NMeK = CN[C@@H](CCCCN)C(=O)O; dCba = N[C@H](CC1CCC1)C(=O)O; dNMeK = CN[C@H](CCCCN)C(=O)O; dNva = CCC[C@@H](N)C(=O)O; Ac3c = NC1(C(=O)O)CC1; Aib = CC(C)(N)C(=O)O

Columns and labels:
[1] = tested on: NCI-H1048 cells; assay: Cell-count dose–response assay; assay type: cell-based, human; details: for activity in proliferation, apoptosis and cell cycle assays: NCI-H1048
[2] = tested on: RPE1 cells; assay: Cell-count dose–response assay; assay type: cell-based, human; details: RPE1, even at high doses
[3] = tested on: 46 human SCLC cell lines; assay: Cell Titer Glo proliferation assay, panel of 46 SCLC cell lines; assay type: cell-based; details: 4–8 days
[4] = tested on: human peripheral blood CD34+ cells; assay type: cell-based; details: CD34+ haematopoietic stem and progenitor cells, even at high doses
[5] = tested on: NCI-H1048 cells; assay: Live-cell imaging of mitosis; assay type: cell-based, human; details: NCI-H1048 GFP–H2B, 20 nM
[6] = tested on: p-KNL1 in NCI-H1048 cells; assay: Immunoblot of p-KNL1; assay type: cell-based, human
[7] = tested on: NCI-H69 cells; assay: Nocodazole synchronization, propidium iodide FACS; assay type: cell-based, human; details: NCI-H69, 60 ng ml−1, overnight
[8] = tested on: NCI-H69 xenografts; assay: NCI-H69 cell line xenograft efficacy study; assay type: in vivo, mouse; details: 100 mg per kg daily i.v. 14 days
[9] = tested on: NCI-H1048 xenografts; assay: NCI-H1048 cell line xenograft efficacy study; assay type: in vivo, mouse; details: 100 mg per kg daily i.v. 14 days
[10] = Body weight, NCI-H69 xenograft study; assay type: in vivo, mouse; details: 100 mg per kg daily 14 days
[11] = Body weight, NCI-H1048 xenograft study; assay type: in vivo, mouse; details: 100 mg per kg daily 14 days

CC(C)C[C@@H]1NC(=O)[C@@H](N(C)C(=O)[C@@H](NC(=O)[C@@H]2C[C@@H](F)CN2C(=O)C2(C(F)(F)F)CC(F)(F)C2)C2CC2)CCCCNC(=O)C(C)(C)NC(=O)[C@H](Cc2cc(Cl)nn2-c2ccccc2)N(C)C1=O [CIRc-019] ({cBuCO(3,3-F2-1-CF3)}-[Pro(trans-4-F)][Gly(cPr)][NMeK]L[X5][Aib]; lactam 3-C)
activity in proliferation, apoptosis and cell cycle assays [1]: lacked activity

CC(C)C[C@H]1NC(=O)[C@H](N(C)C(=O)[C@@H](CC2CCC2)NC(=O)[C@H]2C[C@H](F)CN2C(=O)C2(C(F)(F)F)CC(F)(F)C2)CCCCNC(=O)C2(CC2)NC(=O)[C@@H](Cc2cc(Cl)ccc2Cl)N(C)C1=O [CIRc-005] ({cBuCO(3,3-F2-1-CF3)}-[dPro(trans-4-F)][dCba][dNMeK][dL][X6][Ac3c]; lactam 3-C)
effect on cellular proliferation ([1]; NCI-H1048, 200 nM): had no effect on cellular proliferation

CC(C)C[C@@H]1NC(=O)[C@@H](N(C)C(=O)[C@H](CC2CCC2)NC(=O)[C@@H]2C[C@@H](F)CN2C(=O)C2(C(F)(F)F)CC(F)(F)C2)CCCCNC(=O)C2(CC2)NC(=O)[C@H](Cc2cc(Cl)ccc2Cl)N(C)C1=O [CIRc-004] ({cBuCO(3,3-F2-1-CF3)}-[Pro(trans-4-F)][Cba][NMeK]L[NMePhe(2,5-Cl2)][Ac3c]; lactam 3-C)
sensitivity of normal cells (mitotic arrest, apoptosis) [2]: insensitive | sensitivity of 46 SCLC cell lines in anti-proliferation assays [3]: Nearly all lines were highly sensitive | sensitivity of normal cells (mitotic arrest, apoptosis) [4]: insensitive | anaphase initiation (live-cell imaging) [5]: blocked anaphase initiation

COc1ccc(Oc2cc(NCCC(F)(F)F)c3ncc(-c4ccc(C(=O)NC5CC5)c(C)c4)n3n2)c(F)c1F [BAY-1217389]
KNL1 phosphorylation and proliferation ([6]; 3 nM, NCI-H1048): blocked KNL1 phosphorylation without affecting proliferation

COCc1cc(C(=O)Nc2cc([C@H]3CC[C@@H](OC(=O)NC(C)C)C3)[nH]n2)n(C)n1 [PF-07104091]
SAC activation ([6]; NCI-H1048 cells, 24 h): did not activate the SAC

CCC[C@H]1NC(=O)[C@H](Cc2cc(Cl)ccc2-c2cnn(C)c2)N(C)C(=O)[C@H](CC(C)C)NC(=O)[C@@H](N(C)C(=O)[C@H](CCCCN2CCOCC2)NC(=O)[C@@H](c2cccnc2)C2CCCCC2)CCCCNC1=O [CIRc-018] (X3-[Nle(6-morpholino)][NMeK]L[X4][dNva]; lactam 2-C)
activity in proliferation, apoptosis and cell cycle assays [1]: lacked activity

COC(=O)Nc1nc2ccc(C(=O)c3cccs3)cc2[nH]1 [nocodazole]
cells in mitotic arrest [7]: around 90%

CCCN1C(=O)[C@H](CC(C)C)NC(=O)[C@@H](N(C)C(=O)[C@H](CC2CCC2)NC(=O)[C@@H]2C[C@@H](F)CN2C(=O)[C@@](C)(O)C(F)(F)F)CCCCNC(=O)C2(CC2)NC(=O)[C@@H]1Cc1cc(Cl)ccc1Cl [CIRc-028] (X1-[Pro(trans-4-F)][Cba][NMeK]L[X2][Ac3c]; lactam 3-C)
tumour response [8]: induced tumour regressions | tumour response [9]: substantially inhibited growth | tolerability, body weight [10]: well tolerated without weight loss | tolerability, body weight [11]: well tolerated without weight loss
